“And” between values parts separate entries of the source, which are not always exact repeats. Equal entries are not always repeated. Blank lines part the entries; values can stand above or below the compound they belong to.
Experiments:
[1] = test system: thermostable firefly luciferase; assay: luminescent reaction with luciferin or aminoluciferin as luciferase substrate (FIG. 1); format: biochemical; conditions: substrate for thermostable firefly luciferase, FIG. 1
Description: FIG. 1 depicts relative light units (RLU) for luciferin or aminoluciferin as a substrate for a thermostable firefly luciferase in a luminescent reaction.

[2] = molecular target: T1, trypsin (Bos taurus, UniProt P00760); assay: trypsin titration, homogeneous luminescent vs fluorescent substrate assay (Examples 1 and 2); format: biochemical; conditions: for limit of detection (trypsin): 3 S.D. above background noise, amount of trypsin
T1 construct: gene PRSS1
T1 sequence (P00760 24-246): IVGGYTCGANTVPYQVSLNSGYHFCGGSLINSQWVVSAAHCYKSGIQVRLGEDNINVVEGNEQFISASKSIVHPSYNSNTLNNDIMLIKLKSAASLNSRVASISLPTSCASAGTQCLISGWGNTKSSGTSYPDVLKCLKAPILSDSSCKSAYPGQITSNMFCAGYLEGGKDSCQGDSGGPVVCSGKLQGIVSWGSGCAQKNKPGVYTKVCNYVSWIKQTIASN
Protocol: To compare the limit of detection for a luminescence-based and a fluorescence-based assay for trypsin, two substrates, Lys-aminoluciferin (Cbz-modified lysinyl-aminoluciferin) and Arg-Rho-110 (Molecular Probes, Catalog no. R6501), were used. Substrate was resuspended in 100 mM Hepes, pH 7.9, at a concentration of 10 mM and stored at −20° C. The thawed Lys-aminoluciferin substrate, thermostable luciferase (5.2 mg/ml stock), and ATP (0.1 M stock) were diluted in buffer (50 mM HEPES, pH 7.9, 10 mM MgSO4, 1 mM EDTA, pH 8.2 and 0.1% prionex) to make a stock that was 10× the final concentration. The 10× stock was 200 μM Lys-aminoluciferin, 200 μg/ml luciferase, and 2.0 mM ATP. This 10× stock was incubated for at least 90 minutes to eliminate any free aminoluciferin.
Trypsin was prepared for titration as follows: 1 μg/μl stock solution was diluted to 10 ng/50 μl in the same buffer as above (50 mM HEPES, pH 7.9, 10 mM MgSO4, 1 mM EDTA, pH 8.2 and 0.1% prionex). This […] trypsin solution was serially diluted 5 fold to 2 ng, 0.4 ng, 0.08 ng, 0.016 ng, 3.2 pg, 0.64 pg, 0.128 pg, 0.0256 pg and 0.005 pg. The trypsin dilutions were added to two 96-well plates in replicates of 8 at 50 μl per well. Pipette tips were changed for each row to avoid enzyme carryover. Two columns (16 wells) contained buffer only without trypsin.
One of the two plates of the trypsin dilutions was then used to test the Lys-aminoluciferin substrate (FIG. 3). Samples were tested in quadruplicate. The 10× substrate/luciferase/ATP mix was further diluted 5 fold in the above-described buffer to make a 2× stock. 50 μl of this 2× stock was added to each well containing 50 μl of the trypsin titration such that the final 100 μl volume contained 20 μM Lys-aminoluciferin, 200 μM ATP, and 20 μg/ml of thermostable luciferase in buffer (50 mM HEPES, pH 7.9, 10 mM MgSO4, 1 mM EDTA, pH 8.2 and 0.1% prionex). The substrate mix was also added to 12 of the 16 wells containing buffer only without trypsin. The remaining 4 wells were left with buffer only (no substrate mix). This plate was incubated at room temperature and read by luminometer at 45 minutes and 3 hours after adding the substrate mix to the trypsin.
The second plate of trypsin dilutions was used to test the Arg-Rho-110 substrate (FIG. 4). The Arg-Rho-110 substrate was tested at final concentrations of 10 μM and 2.5 μM. 2× stocks of 20 μM and 5 μM were prepared by diluting the substrate in 50 mM HEPES, pH 7.9, 10 mM MgSO4, 1 mM EDTA, pH 8.2 and 0.1% prionex. To each well of the plate containing 50 μl of the trypsin titration was added 50 μl of either the 20 μM or 5 μM 2× stocks of Arg-Rho-110 substrate. The 20 μM stock was added to the first four rows (final concentration of 10 μM in rows A-D) and the 5 μM stock was added to the second four rows (final concentration of 2.5 μM in rows E-H). The substrate mix was also added to 12 of the 16 wells containing buffer only without trypsin. The remaining 4 wells were left with buffer only (no substrate mix). The Arg-Rho-110 plate was incubated at room temperature in the dark for 4.5 hours and read on a fluorimeter.
The signal to noise was calculated as signal-background (no trypsin)/S.D. of background. The limit of detection was determined as 3 S.D. above background noise.
To determine the effect of an overnight pre-incubation of substrate with luciferase, ATP and buffer prior to adding trypsin, a substrate/luciferase/ATP mix was incubated overnight in the dark, at room temperature. […]

[3] = molecular target: T2, caspase 3 (Homo sapiens, UniProt P42574); assay: caspase titration, luminescent vs fluorescent substrate in Apo-ONE buffer (Example 3); format: biochemical
T2 construct: approximately 10 mU/ng protein with >75% in active conformation; purchased Upstate Biotech 14-264
T2 sequence (P42574 29-175 limits assumed): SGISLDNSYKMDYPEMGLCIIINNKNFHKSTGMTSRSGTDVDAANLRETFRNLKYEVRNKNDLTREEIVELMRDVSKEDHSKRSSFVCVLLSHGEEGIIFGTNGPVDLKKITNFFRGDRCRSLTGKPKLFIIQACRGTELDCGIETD
T2 sequence (P42574 176-277 limits assumed): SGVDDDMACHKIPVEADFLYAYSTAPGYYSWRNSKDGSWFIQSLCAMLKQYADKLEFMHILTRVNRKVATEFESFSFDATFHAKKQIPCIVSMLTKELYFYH
Protocol: To conduct a direct comparison between luminescent and fluorescent substrates for caspase 3, DEVD-Rho-110 and DEVD-aminoluciferin were employed. The DEVD-aminoluciferin substrate/luciferase/ATP mixture was prepared first and preincubated prior to the enzyme assay to eliminate free aminoluciferin. To 1.25 ml of Apo-ONE™ buffer (Promega) was added 10 μl of DEVD-luciferin (10 mM stock), 10 μl of ATP (0.1 M stock), 50 μl of MgSO4 (1 M stock), 50 μl of prionex (10% stock), and 48 μl of luciferase (5.2 mg/ml stock). The volume was brought up to 2.5 ml with nanopure, autoclaved water to make a 2× stock of 40 μM DEVD-luciferin, 400 μM ATP, 0.2% prionex, and 100 μg/ml luciferase. This stock was incubated overnight at room temperature.
Caspase (Upstate Biotech, Cat. No.14-264; approximately 10 mU/ng protein with >75% in active conformation) was diluted 550 fold in a 50/50 mixture of Apo-ONE™ buffer/RPMI-1640 culture media, from 1 U/μl to 1.8 mU/μl. 50 μl of Apo-One™ buffer/RPMI-1640 media was added to each well in two 96-well plates. Then, 5.5 μl of the caspase stock was added to the 50 μL of Apo-One™ buffer/RPMI-1640 media for a concentration of about 10 mU/50 μl. Ten serial dilutions of 10 fold each were carried out in the wells by serially transferring 5.5 μl of caspase solution into the 50 μl of the buffer/media mix. The final caspase concentrations were 10 mU, 1 mU, 0.1 mU, 0.01 mU, 0.001 mU, 0.1 μU, 0.01 μU, 0.001 μU, 0.1 nU, and 0.01 nU/well. The last two columns were buffer/media only without caspase.
To one plate of caspase dilutions, 50 μl of the DEVD-aminoluciferin substrate mixture was added to each well for final concentrations of 20 μM DEVD-aminoluciferin, 200 μM ATP, 10 mM MgSO4, 0.1% prionex, and 50 μg/ml luciferase. […] Readings were taken for each plate at 1 hour, 3 hours, and 5 hours on a luminometer and fluorimeter, respectively.
Signal to noise was calculated as above and the limit of detection was determined as 3 S.D. above the background noise.

[4] = test system: Jurkat cells; assay: caspase activity in Jurkat cells induced to undergo apoptosis with anti-FAS antibody (Example 4); format: cell-based; conditions: for sensitivity greater than the Arg-Rho110: Jurkat cells, FIG. 11
Protocol: The DEVD-aminoluciferin caspase substrate and the DEVD-Rho-110 caspase substrate were used to measure caspase activity in Jurkat cells induced to undergo apoptosis with anti-FAS antibody. DEVD-luciferin and luciferase were prepared for pre-incubation prior to use in the assay. Substrate, ATP, MgSO4, prionex and luciferase were diluted from the same stock as in Example 3 to the same 2× concentration, except that the components were diluted in autoclaved water rather than Apo-ONE™. This mixture was incubated overnight in the dark (covered in foil).
The next day, Jurkat cells, grown in RPMI-1640 media with 10% Fetal Bovine Serum (FBS) to a density of 5×10^5 cells/ml, were treated with anti-FAS antibody. To one vial of 8 ml of media was added 1.6 μl of antibody (1:5000 dilution); a second vial contained 8 ml of media and no antibody. Cells were incubated for 4 hours at 37° C., in 5% CO2 Cells were then centrifuged and resuspended in 12.5 ml of RPMI-1640 to a density of 3.2×10^5 cells/ml, then diluted 1:1 with Apo-ONE™ buffer for 1.6×10^5 cells/ml, or 8,000 per 50 μl.
Two 96-well plates were prepared such that on each, the first column was left empty, and 50 μl of RPMI-1640:Apo-ONE™ solution was placed in each of the remaining wells. To the first four rows of each plate, […] of the “induced” cell solution (8,000 cells) was added and the cells then serially diluted from 8,000 cells/well, to 4,000 cells/well and so on, down to 7.8 cells/well. The twelfth column was left without cells and with only 50 μl of RPMI-1640:Apo-ONE™ solution. […]
Signal to noise was calculated (signal minus background (no cell control)/S.D. of background) and the limit of detection was determined as 3 S.D. above the background noise.
One of the two plates was treated with 50 μl of either DEVD-aminoluciferin/luciferase mix or with DEVD-Rho-110/Apo-ONE™ (Promega G778B and G777B). Each plate was mixed on a plate shaker for 30 seconds then incubated at room temperature and read on either a Dynex luminometer or Fluoroskan plate reader at 1 hour, 2 hours, 4 hours and one day later.

Km [1]: ~0.6 µM
Compound: O=C(O)[C@H]1CSC(c2nc3ccc(O)cc3s2)=N1 [luciferin]

limit of detection (trypsin) [2]: 12 to 30 pg
limit of detection (trypsin) ([2]; listed as arginine2-rhodamine-110): 12 to 30 pg
Compound: N=C(N)NCCCC(NC(=O)OCc1ccccc1)C(=O)Nc1ccc2c(c1)Oc1cc(NC(=O)C(CCCNC(=N)N)NC(=O)OCc3ccccc3)ccc1C21OC(=O)c2ccccc21 (stereo not drawn) [Arg-Rho-110, reference compound]

more sensitive than DEVD-Rho-110 ([3]; FIG. 10, Example 3): 10-100 times
sensitivity greater than the Arg-Rho110 ([3]; depending on the time of the readings, FIG. 10): 50-300 fold
limit of detection (purified caspase) ([3]; substrate for caspase 3 and 7, purified caspase, 3 S.D. above background): 0.2 to 0.5 μU
Compound: N-(Z-Asp-Glu-Val-Asp)-aminoluciferin [DEVD-aminoluciferin]
sensitivity greater than the Arg-Rho110 ([4]; 1 hour time point): 10 fold
sensitivity greater than the Arg-Rho110 ([4]; at 4 hours): about 2 fold
limit of detection of caspase expressing cells ([4]; at 1 hour): 15 cells

limit of detection (trypsin) [2]: 3.0 pg
sensitivity greater than Arg-Rho-110 ([2]; depending on the time of the reading, FIG. 9): 3-10 fold and 3 to 10 fold
less enzyme detected / more sensitive than fluorescence-based assay ([2]; luminescent vs rhodamine-110 trypsin substrate): 4-10 times
Compound: Cbz-modified lysinyl-aminoluciferin [Lys-aminoluciferin]
